Results on two substances are retold here after patent US20080139407A1, “Segment synthesis” (PEPSCAN SYSTEMS B. V., priority 2000, published 2008).

*: point of attachment. BrAc = O=C(CBr)*

The subject of one data set is monoclonal antibody-01. The data set is described as follows: Spotted peptide constructs tested against monoclonal antibody-01, indirect fluorescence detection. Conditions: peptides spotted in 1 μl to 0.25 nl. Format: binding. The procedure: FIG. 2. A) Microturisation of spots of peptide constructs. Constructs were tested against the same monoclonal antibody-01 as was tested in FIG. 1. Binding was made visible using indirect fluorescence detection. Peptide 1, sequence with an N-terminal bromoacetamide, was synthesised on the complete surface. Peptide construct 6-1 is the same as construct 125 in FIG. 1. Peptides 2 up to 8, containing a cysteine residue, were spotted in different volumes ranging from 1 μl to 0.25 nl using piezo drop-on-demand technology. […] The identified epitope is shown in black. The disclosed peptide is shown in SEQ ID NO: 7.
The bromoacetamide peptide was covalently bound to a functionalised polypropylene/polyacrylic acid solid support in 3 μl wells as described above. The cysteine-containing sequences were synthesised on and cleaved from functionalised polyethylene pins as described above. […] On a surface of a solid support peptides are synthesized with a bromoacetamide group at the N-terminus as described above. […]

For a further data set, the system named is monoclonal antibody-03. Put plainly: Control test of peptide-covered surface with monoclonal antibody-03, indirect fluorescence detection. Format: binding. Conditions: peptide present on the whole square.
The subject of data set [1] is biotinylated DNA (3′-TATTCTCCGGACGAGTACCGTGAAGGGTC-Biotin-5′). Put plainly: Binding of biotinylated DNA by the construct of two PNAs, detected with streptavidin-horse radish peroxidase and ABTS. Conditions: miniwell setup, polypropylene surface. From the text: FIG. 10. A) Schematic presentation of a DNA/RNA scan. The constructs are scanned with a labeled protein, for example a regulatory protein, or another DNA or PNA strand (top), or alternatively overlapping peptides are scanned with biotynilated RNA, DNA or PNA (bottom). The oligonucleotide sequences are shown in SEQ ID NOS 661-666, respectively, in order of appearance. B) Working example with biotinylated DNA on construct of two PNA's.
Chemistry in short: Detection of the binding of Biotinylated DNA by the construct of two PNAs. In miniwell setup the polypropylene (PP) surface of the miniwells was functionalized with carboxyl groups using gamma irradiation (12 kGy) in the presence of CuSO4 and 6% acrylic acid. Subsequently the PP surface was amino group functionalized (using BocHMDA/DCC/HOBt with subsequent removal of the Boc group with TFA). Next the amino groups were converted in thiol groups by coupling of Fmoc-Cys-(Trt) using DCC/HOBt, removal of the Fmoc group, acetylation of the amino group followed by removal of the Trt by TFA/triethyl silan. To this PP surface functionalized with thiol groups a PNA (PNA1) was coupled which contains N-terminal a bromoacetyl group and C-terminal an extra Cys-S-tBu (the Bromo group of the PNA reacts to the thiol group of the surface). After removal of the S-tBu (using NaBH4) of the Cys-S-tBu, the coupled PNA has a thiol group on C-terminal end. […]

With ADSLYTYPVATQ (BrAc-ADSLYTYPVATQ-NH2), in the data set with monoclonal antibody-01, the “recognition / binding by monoclonal antibody-01” value is reported as “does not recognize”. In the data set on monoclonal antibody-03, the “recognition by monoclonal antibody-03” value was “recognizes”.

Regarding “GAGGCCTGCTspacer ATGGCACTTC (PNA, spacer, thioether coupling to polypropylene surface, chemistry not fully specified) [PNA construct, construct of PNA1 and PNA2 coupled via thioether on polypropylene surface]”, in data set [1], the “binding of biotinylated DNA to the PNA construct” value was “binding”.
